Test results as given in patent US12209087B2, “AKT1 modulators” (Alterome Therapeutics, Inc., priority 2022, dated 2025).

Biological target: T1, full length AKT E17K (Homo sapiens, UniProt P31749, E17K)
T1 construct: host or cells: HEK-293 (ATCC CRL-1573)
Test: NanoBRET Target Engagement (TE) Assay
Assay type: cell-based
Conditions: competitive displacement of tracer in cells, read-out: AKT1 E17K IC50
Summary of the method: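 Compound and tracer incubated 2 h before luminescence at donor 450 nm and acceptor 600 nm, with extracellular signal inhibited. EC50 by sigmoidal variable-slope regression.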

T1 sequence (P31749 whole entry E17K): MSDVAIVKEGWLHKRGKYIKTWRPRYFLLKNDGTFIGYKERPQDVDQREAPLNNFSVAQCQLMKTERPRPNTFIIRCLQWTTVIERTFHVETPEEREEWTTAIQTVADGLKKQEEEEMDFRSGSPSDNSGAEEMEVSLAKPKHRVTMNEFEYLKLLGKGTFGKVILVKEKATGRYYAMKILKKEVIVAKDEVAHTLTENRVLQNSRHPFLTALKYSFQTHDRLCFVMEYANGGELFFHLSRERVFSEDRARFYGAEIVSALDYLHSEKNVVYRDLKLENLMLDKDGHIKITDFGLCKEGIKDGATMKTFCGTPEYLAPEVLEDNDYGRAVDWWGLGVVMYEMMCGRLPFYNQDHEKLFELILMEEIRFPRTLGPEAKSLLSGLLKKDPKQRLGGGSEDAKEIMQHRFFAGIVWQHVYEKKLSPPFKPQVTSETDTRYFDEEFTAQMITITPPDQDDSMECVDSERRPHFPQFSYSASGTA

Row | SMILES | IC50
1 | N#Cc1nccc(NC2CCN(Cc3ccc(-n4c(-c5cccnc5N)nc5ccc(-c6ccc(C(F)F)nc6)nc54)cc3)CC2)n1 [Example 645, 4-((1-(4-(2-(2-Aminopyridin-3-yl)-5-(6-(difluoromethyl)pyridin-3-yl)-3H-imidazo[4,5-b]pyridin-3-yl)benzyl)piperidin-4-yl)amino)pyrimidine-2-carbonitrile] | < 15 nM
2 | N#Cc1nccc(NC2CCN(Cc3ccc(-n4c(-c5cccnc5N)nc5ccc(-c6ccc(C(F)(F)F)nc6)nc54)cc3)CC2)n1 [Example 646, 4-((1-(4-(2-(2-Aminopyridin-3-yl)-5-(6-(trifluoromethyl)pyridin-3-yl)-3H-imidazo[4,5-b]pyridin-3-yl)benzyl)piperidin-4-yl)amino)pyrimidine-2-carbonitrile] | < 15 nM
3 | N#Cc1nccc(NC2CCN(Cc3ccc(-n4c(-c5cccnc5N)nc5ccc(-c6ccc(C(F)F)cn6)nc54)cc3)CC2)n1 [Example 649, 4-((1-(4-(2-(2-Aminopyridin-3-yl)-5-(5-(difluoromethyl)pyridin-2-yl)-3H-imidazo[4,5-b]pyridin-3-yl)benzyl)piperidin-4-yl)amino)pyrimidine-2-carbonitrile] | < 15 nM
4 | N#Cc1nccc(NC2CCN(Cc3ccc(-n4c(-c5cccnc5N)nc5ccc(-c6ccc(C(F)(F)F)cn6)nc54)cc3)CC2)n1 [Example 650, 4-((1-(4-(2-(2-Aminopyridin-3-yl)-5-(5-(trifluoromethyl)pyridin-2-yl)-3H-imidazo[4,5-b]pyridin-3-yl)benzyl)piperidin-4-yl)amino)pyrimidine-2-carbonitrile] | 15 to 60 nM

Results, then the compound that gave them:

Row | IC50 | SMILES
5 | < 15 nM | CCc1ccc(-c2ccc3nc(-c4cccnc4N)n(-c4ccc(CN5CCC(Nc6ccnc(C#N)n6)CC5)cc4)c3n2)nc1 [Example 647, 4-((1-(4-(2-(2-Aminopyridin-3-yl)-5-(5-ethylpyridin-2-yl)-3H-imidazo[4,5-b]pyridin-3-yl)benzyl)piperidin-4-yl)amino)pyrimidine-2-carbonitrile]
6 | < 15 nM | N#Cc1nccc(NC2CCN(Cc3ccc(-n4c(-c5cccnc5N)nc5ccc(-c6ccc(CF)cn6)nc54)cc3)CC2)n1 [Example 648, 4-((1-(4-(2-(2-Aminopyridin-3-yl)-5-(5-(fluoromethyl)pyridin-2-yl)-3H-imidazo[4,5-b]pyridin-3-yl)benzyl)piperidin-4-yl)amino)pyrimidine-2-carbonitrile]
